# Like-named read-outs stand apart in the source and are kept apart here.
# Columns and labels:
# [1] = in vivo
# CMV = details: Primary Human Fibroblasts; cited from earlier work
# SARS-CoV-2 = assay: microbe, parasite or virus in culture; assay type: cell-based
# [2] = test system: Influenza A H1N1(California); details: MDCK (canine kidney); cited from earlier work
# Vero76 (monkey kidney) = details: Vero76, Zika row; cited from earlier work
# [3] = test system: Primary Human Fibroblasts; details: CMV row; cited from earlier work
# Vero (monkey kidney) = details: cited from earlier work
# [4] = test system: A549 (human alveolar basal epithelial); details: A549, Dengue row; cited from earlier work
# Influenza A H1N1(BIRFLU) [5] = details: A549 (human alveolar basal epithelial); cited from earlier work
# [6] = Adverse events in subjects receiving brequinar intravenously once a week; details: IV once a week, 209 subjects
# Influenza B (Brisbane) = details: MDCK (canine kidney); cited from earlier work
# FMDV (O/MY98/BY/2010) = details: cited from earlier work
# [7] = test system: A549 (human alveolar basal epithelial); details: A549, H1N1(BIRFLU) row; cited from earlier work
# Influenza A H1N1(BIRFLU) [8] = details: MDCK (canine kidney); cited from earlier work
# [9] = test system: acute myeloid leukemia (AML); assay: Clinical response of patients with AML to brequinar-containing composition; assay type: in vivo, human
# AML = details: cited from earlier work
# in vivo = details: rodents
# RNA virus = assay: Daily brequinar for five days in subject infected with an RNA virus (Example 19); assay type: in vivo; details: single daily dose for five consecutive days, first peak in brequinar level
# Method: The mechanism by which administration of a DHODH inhibitor according to a daily dosing regimen inhibits viral replication is illustrated below. […] Throughout the course of the dosing regimen, levels of intracellular pyrimidines, such as uridine, and viral replication are measured.
# [10] = in vivo; remark: listed apart in the source
# [11] = Cytotoxicity in H1-HeLa cells (XTT); details: human, H1-HeLa cells (CRL-1958)
# VSV = details: HuH7 (human hepatocellular carcinoma); cited from earlier work
# Dengue = details: A549 (human alveolar basal epithelial); cited from earlier work
# MDCK (canine kidney) = details: H1N1(BIRFLU) row; cited from earlier work
# solid tumor malignancies = details: 5-day period followed by 3-week gap, or once per week for three weeks followed by 1-week gap; cited from earlier work
# CYP = CYP inhibition
# [12] = test system: TZM-bl(human cervical tumor); details: HIV1 row; cited from earlier work
# IBRS-2 (swine kidney) = details: cited from earlier work
# HIV1 = details: HIV1, TZM-bl(human cervical tumor); cited from earlier work
# DHODH [13] = molecular target: DHODH (Homo sapiens, UniProt Q02127); details: concentrations >1 μM
# DHODH (Homo sapiens, UniProt Q02127), sequence (Q02127 whole entry): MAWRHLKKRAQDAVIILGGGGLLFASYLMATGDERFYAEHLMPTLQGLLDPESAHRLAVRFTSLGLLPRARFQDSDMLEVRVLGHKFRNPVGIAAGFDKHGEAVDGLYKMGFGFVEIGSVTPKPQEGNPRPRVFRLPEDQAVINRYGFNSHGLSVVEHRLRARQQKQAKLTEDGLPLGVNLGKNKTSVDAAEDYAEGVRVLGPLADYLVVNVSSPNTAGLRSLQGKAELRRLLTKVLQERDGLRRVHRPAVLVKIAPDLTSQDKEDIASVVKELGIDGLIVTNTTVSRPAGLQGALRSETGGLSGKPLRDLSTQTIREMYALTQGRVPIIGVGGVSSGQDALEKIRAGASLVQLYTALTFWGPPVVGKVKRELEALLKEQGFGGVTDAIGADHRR
# [14] = test system: 16HBE (human bronchial epithelial); details: H1N1 (New Caledonia) row; cited from earlier work
# DHODH [15] = test system: DHODH
# [16] = test system: Respiratory Syncytial (RSV); details: A549 or HEp-2 (human epithelial); cited from earlier work
# [17] = test system: A549 or HEp-2 (human epithelial); details: A549 or HEp-2, RSV row; cited from earlier work
# Ebola = details: HeLa (human cervical tumor); cited from earlier work
# HRV1A strain 2060 = assay: Rhinovirus antiviral assay, inhibition of virus-induced cell killing (XTT) in H1-HeLa cells; assay type: cell-based; details: Enterovirus
# Influenza A H3N2 = details: Influenza A H3N2, MDCK (canine kidney); cited from earlier work
# in vitro = details: monkey, CC50, Vero E6
# Yellow Fever = details: Vero (monkey kidney); cited from earlier work
# FMDV (A/GD/MM/2013) = details: cited from earlier work
# Zika = details: Vero76 (monkey kidney); cited from earlier work
# [18] = test system: HuH7 (human hepatocellular carcinoma); details: cited from earlier work
# [19] = test system: Influenza A H1N1 (New Caledonia); details: 16HBE (human bronchial epithelial); cited from earlier work
smiles,measurement,setting,value
"Cc1c(-c2ccc(-c3ccccc3F)cc2)nc2ccc(F)cc2c1C(=O)O [brequinar, 6-fluoro-2-(2′-fluoro-1,1′ biphenyl-4-yl)-3-methyl-4-quinoline carboxylic acid]",equivalence of oral and IV formulations,[1],oral and IV formulations are equivalent
same,EC50,CMV,0.8 µM
same,E(Max),SARS-CoV-2,88.2
same,lowering of the EC50 of remdesivir by brequinar,SARS-CoV-2,> 40 fold
same,EC90,"SARS-CoV-2; Severe acute respiratory syndrome coronavirus 2, Vero C1008",0.345 µM
same,Emax,"SARS-CoV-2; Severe acute respiratory syndrome coronavirus 2, Vero C1008, Vero E6, read-out: maximal inhibitory activity (Emax) compared to the no infection control",88.2%
same,EC50,[2],0.78 µM
same,CC50,Vero76 (monkey kidney),> 50 µM
same,CC50,[3],> 50 µM
same,CC50,Vero (monkey kidney),> 50 µM
same,CC50,[4],> 5 µM
same,EC50,Influenza A H1N1(BIRFLU) [5],0.14 µM
same,Infection: No. of Patients,[6],7
same,"Infection: No. of Patients Experiencing the AE, Max Grade 1",[6],4
same,"Infection: No. of Patients Experiencing the AE, Max Grade 2",[6],3
same,"Infection: No. of Patients Experiencing the AE, Max Grade 3",[6],0
same,"Infection: No. of Patients Experiencing the AE, Max Grade 4",[6],0
same,Infection: Percent,[6],3.3%
same,EC50,Influenza B (Brisbane),0.25 µM
same,EC50,FMDV (O/MY98/BY/2010),30 µM
same,CC50,[7],> 50 µM
same,EC50,Influenza A H1N1(BIRFLU) [8],0.58 µM
same,response,"[9]; first patient (Example 12): reduction in bone marrow blast count, improved extramedullary hematopoiesis, more differentiated peripheral blasts",positive response
same,response,[9]; patient of Example 14: trend towards differentiation of peripheral blasts,positive response
same,response,"[9]; second patient (Example 13): lowering of peripheral blasts, increase in absolute neutrophil count, greater differentiation",positive response
same,toxicity,AML; daily administration of high doses,"weight loss, anemia, and thrombocytopenia"
same,leukemia-initiating cell activity,AML; only when elevated plasma levels are maintained for extended periods,decreases leukemia-initiating cell activity
same,Kp,in vivo,~0.5
same,intracellular pyrimidine levels,RNA virus,dramatic decrease in the intracellular pyrimidine pool
same,cumulative effect of repeated doses,[10],No cumulative effective of repeated doses
same,CC50 at 3 days,[11],0.3 µM
same,EC50,VSV,0.014 µM
same,EC50,Dengue,0.078 µM
same,CC50,MDCK (canine kidney),> 50 µM
same,efficacy in solid tumor malignancies,solid tumor malignancies,ineffective
same,CYP inhibition,CYP,Does not inhibit CYP
same,CC50,[12],> 30 µM
same,CC50,IBRS-2 (swine kidney),100 µM
same,EC50,HIV1,0.04 µM
same,DHODH inhibition,DHODH [13],almost completely inhibited
same,CC50,[14],> 50 µM
same,DHO plasma level threshold achieved,"DHODH [15]; human, in vivo",133 ng/mL
same,time to achieve DHO plasma level threshold,DHODH [15]; patient with AML of Example 14,less than 2 hours
same,EC50,[16],0.053 µM
same,CC50,[17],> 10 µM
same,EC50,Ebola,0.1 µM
same,EC50,HRV1A strain 2060,0.05 µM
same,EC50,Influenza A H3N2,0.62 µM
same,CC50 at 3 days,in vitro,> 50 µM
same,EC50,Yellow Fever,0.02 µM
same,EC50,FMDV (A/GD/MM/2013),< 3 µM
same,EC50,Zika,0.08 µM
same,CC50,[18],> 25 µM
same,EC50,[19],0.14 µM

# Source: patent publication US20210290651A1, “METHODS OF TREATING VIRAL INFECTIONS USING INHIBITORS OF NUCLEOTIDE SYNTHESIS PATHWAYS” (priority 2020, published 2021)
